The values that follow come from patent US9433621B2, “Substituted pyridine and pyrimidine derivatives and their use in treating viral infections” (Merck Sharp & Dohme Corp., priority 2010, dated 2016).

The experiment concerns HCV replicon. The experiment can be described thus: Cell-Based HCV Replicon Assay. Particulars: Hepatitis C virus; HCV Replicon assay, EC90 range, Table VI; read-out: EC90. The method in brief: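 Replicon cells, 5000/well, treated 3 days with 10 serial 2-fold dilutions (top 25 μM to 1 μM) in 0.5% DMSO, 10% FBS. Replicon RNA measured by multiplex Taqman RT-PCR (NS5B amplicon, GAPDH control); EC50/EC90 = concentration giving ΔCT of 1/3.2 over baseline from sigmoid fit.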
(A replicon is a self-replicating genome or part of one, used to study replication in cells.)

As a reminder, the EC90 is the concentration needed for an effect of 90%.

Take `Cc1nc(NCC2CC2)nc(N[C@@H]2C[C@H](C(C)(C)S(C)(=O)=O)[C@@H](O)[C@H]2O)c1-c1nc2c(C3CC3)nccc2s1` [Example 5073]: the EC90 is less than 500 nM.
Consider `Cc1nc(NCC(C)(C)C)nc(N[C@@H]2C[C@H](C(C)(C)S(C)(=O)=O)[C@@H](O)[C@H]2O)c1-c1nc2c(C3CC3)nccc2s1` [Example 5074], for which the EC90 is less than 500 nM.
To `COCCNc1nc(C)c(-c2nc3c(C4CC4)nccc3s2)c(N[C@@H]2C[C@H](C(C)(C)S(C)(=O)=O)[C@@H](O)[C@H]2O)n1` [Example 5075] belongs less than 500 nM; to `Cc1nc(N)nc(N[C@@H]2C[C@H](C(C)(C)S(=O)(=O)c3ccccc3)[C@@H](O)[C@H]2O)c1-c1nc2c(C)nccc2s1` [Example 5076], less than 500 nM.
The same measure for `COCCNc1nc(C)c(-c2nc3c(C)nccc3s2)c(N[C@@H]2C[C@H](C(C)(C)S(=O)(=O)c3ccccc3)[C@@H](O)[C@H]2O)n1` [Example 5077]: less than 500 nM; for `Cc1nc(NCC(F)(F)F)nc(N[C@@H]2C[C@H](C(C)(C)S(C)(=O)=O)[C@@H](O)[C@H]2O)c1-c1nc2c(C)nccc2s1` [Example 5078]: less than 500 nM; for `Cc1nc(NCC(F)(F)F)nc(N[C@@H]2C[C@H](C(C)(C)S(C)(=O)=O)[C@@H](O)[C@H]2O)c1-c1nc2c(C3CC3)nccc2s1` [Example 5079]: less than 500 nM.
To `Cc1nc(NCC2CC2)nc(N[C@@H]2C[C@H](C(C)(C)S(=O)(=O)c3ccccc3)[C@@H](O)[C@H]2O)c1-c1nc2c(N)nccc2s1` [Example 5080] belongs less than 500 nM.
Take `Cc1nc(N)nc(N[C@@H]2C[C@H](C(C)(C)S(=O)(=O)c3ccccc3)[C@@H](O)[C@H]2O)c1-c1nc2c(N)nccc2s1` [Example 5081]: the EC90 was less than 500 nM.
The same measure for `Cc1nc(NCc2c(F)cccc2F)nc(N[C@@H]2C[C@H](NC(=O)NCc3ccccc3F)[C@@H](O)[C@H]2O)c1-c1nc2c(C3CC3)nccc2s1` [Example 5082]: 500 to 5000 nM.
To `Cc1nc(NCc2c(F)cccc2F)nc(N[C@@H]2C[C@H](NC(=O)NC(C)C)[C@@H](O)[C@H]2O)c1-c1nc2c(C3CC3)nccc2s1` [Example 5083] belongs less than 500 nM; to `Cc1nc(NCc2c(F)cccc2F)nc(N[C@@H]2C[C@H](NC(=O)OCc3nccs3)[C@@H](O)[C@H]2O)c1-c1nc2c(C3CC3)nccc2s1` [Example 5084], less than 500 nM.
To `CCCNC(=O)N[C@H]1C[C@@H](Nc2nc(NCc3c(F)cccc3F)nc(C)c2-c2nc3c(C4CC4)nccc3s2)[C@H](O)[C@@H]1O` [Example 5085] belongs less than 500 nM; to `CO[C@H](C)CNc1nc(C)c(-c2nc3c(C4CC4)nccc3s2)c(N[C@@H]2C[C@H](C(N)=O)[C@@H](O)[C@H]2O)n1` [Example 5086], less than 500 nM; to `CCNC(=O)N[C@H]1C[C@@H](Nc2nc(NCC3CC3)nc(C)c2-c2nc3c(C4CC4)nccc3s2)[C@H](O)[C@@H]1O` [Example 5087], less than 500 nM.
For `Cc1nc(NCC2CC2)nc(N[C@@H]2C[C@H](NC(=O)NC(C)(C)C)[C@@H](O)[C@H]2O)c1-c1nc2c(C3CC3)nccc2s1` [Example 5088], the EC90 was less than 500 nM.
To `Cc1nc(N[C@H](C)C2CC2)nc(N[C@@H]2C[C@H](NC(=O)NC(C)(C)C)[C@@H](O)[C@H]2O)c1-c1nc2c(C3CC3)nccc2s1` [Example 5089] belongs less than 500 nM; to `Cc1nc(N[C@H](C)C2CC2)nc(N[C@@H]2C[C@H](NC(=O)NCc3ccc(C(F)(F)F)cc3)[C@@H](O)[C@H]2O)c1-c1nc2c(C3CC3)nccc2s1` [Example 5090], less than 500 nM; to `Cc1nc(NC(C)(C)C)nc(N[C@@H]2C[C@H](NC(=O)NC(C)(C)C)[C@@H](O)[C@H]2O)c1-c1nc2c(C3CC3)nccc2s1` [Example 5091], less than 500 nM.
The same measure for `Cc1nc(NCC2CC2)nc(N[C@@H]2C[C@H](NC(=O)Nc3ccccc3)[C@@H](O)[C@H]2O)c1-c1nc2c(C3CC3)nccc2s1` [Example 5092]: less than 500 nM; for `Cc1nc(NCC2CC2)nc(N[C@@H]2C[C@H](NC(=O)NC3CCCC3)[C@@H](O)[C@H]2O)c1-c1nc2c(C3CC3)nccc2s1` [Example 5093]: less than 500 nM; for `CCNC(=O)N[C@H]1C[C@@H](Nc2nc(NC(C)(C)C)nc(C)c2-c2nc3c(C4CC4)nccc3s2)[C@H](O)[C@@H]1O` [Example 5094]: less than 500 nM.
The same measure for `Cc1nc(NC(C)(C)C)nc(N[C@@H]2C[C@H](NC(=O)NC3CC3)[C@@H](O)[C@H]2O)c1-c1nc2c(C3CC3)nccc2s1` [Example 5095]: less than 500 nM; for `Cc1nc(N[C@H](C)C2CC2)nc(N[C@@H]2C[C@H](NC(=O)N(C)C)[C@@H](O)[C@H]2O)c1-c1nc2c(C3CC3)nccc2s1` [Example 5096]: less than 500 nM.
For `Cc1nc(NC(C)(C)C)nc(N[C@@H]2C[C@H](NC(=O)N(C)C)[C@@H](O)[C@H]2O)c1-c1nc2c(C3CC3)nccc2s1` [Example 5097], the 90% effect concentration (EC90) was less than 500 nM.
To `Cc1nc(NCC2CC2)nc(N[C@@H]2C[C@H](NC(=O)N(C)C)[C@@H](O)[C@H]2O)c1-c1nc2c(C3CC3)nccc2s1` [Example 5098] belongs less than 500 nM; to `Cc1nc(NCC2CCC2)nc(N[C@@H]2C[C@H](NC(=O)NC(C)(C)C)[C@@H](O)[C@H]2O)c1-c1nc2c(C3CC3)nccc2s1` [Example 5100], less than 500 nM.
To `COC1(CCNc2nc(C)c(-c3nc4c(C)nccc4s3)c(N[C@@H]3C[C@H](C(C)(C)O)[C@@H](O)[C@H]3O)n2)CCCC1` [Example 5101] belongs less than 500 nM.
For `CO[C@@]1(CNc2nc(C)c(-c3nc4c(C)nccc4s3)c(N[C@@H]3C[C@H](C(C)(C)O)[C@@H](O)[C@H]3O)n2)CCOC1` [Example 5102], the EC90 was less than 500 nM.
On to `CO[C@@]1(CNc2nc(C)c(-c3nc4c(C)nccc4s3)c(N[C@@H]3C[C@H](C4(O)CCCC4)[C@@H](O)[C@H]3O)n2)CCOC1` [Example 5103], for which the 90% effect concentration (EC90) was less than 500 nM.
As for `COC[C@@H](C)Nc1nc(C)c(-c2nc3c(C)nccc3s2)c(N[C@@H]2C[C@H](C3(O)CCCC3)[C@@H](O)[C@H]2O)n1` [Example 5104], the 90% effect concentration (EC90) is less than 500 nM.
The same measure for `COCCNc1nc(C)c(-c2nc3c(C)nccc3s2)c(N[C@@H]2C[C@H]([C@H](O)C(C)C)[C@@H](O)[C@H]2O)n1` [Example 5105]: less than 500 nM; for `Cc1nc(NCc2cc(F)c(F)cc2F)nc(N[C@@H]2C[C@H]([C@H](O)C(C)C)[C@@H](O)[C@H]2O)c1-c1nc2c(C)nccc2s1` [Example 5106]: less than 500 nM; for `Cc1nc(N)nc(N[C@@H]2C[C@H](C3(O)CCCC3)[C@@H](O)[C@H]2O)c1-c1nc2c(C)nccc2s1` [Example 5107]: less than 500 nM.
The same measure for `Cc1nc(NC2(C3CCCC3)CC2)nc(N[C@@H]2C[C@H]([C@H](O)C(C)C)[C@@H](O)[C@H]2O)c1-c1nc2c(C)nccc2s1` [Example 5108]: less than 500 nM; for `Cc1nc(NCC2(O)CCCC2)nc(N[C@@H]2C[C@H](C3(O)CCCC3)[C@@H](O)[C@H]2O)c1-c1nc2c(C)nccc2s1` [Example 5110]: less than 500 nM; for `Cc1nc(NCC2(O)CC2)nc(N[C@@H]2C[C@H](C3(O)CCCC3)[C@@H](O)[C@H]2O)c1-c1nc2c(C)nccc2s1` [Example 5111]: less than 500 nM.
The same measure for `CCO[C@H]1C[C@H](CNc2nc(C)c(-c3nc4c(C)nccc4s3)c(N[C@@H]3C[C@H](C4(O)CCCC4)[C@@H](O)[C@H]3O)n2)C1` [Example 5112]: less than 500 nM.
